Experimental data as given in US20230242544A1, “QUINAZOLINE COMPOUNDS, PREPARATION METHODS AND USES THEREOF” (INVENTISBIO CO., LTD., priority 2020, published 2023).
pKd: −log10 of the molar value.

Key:
[1] = target: recombinant human KRAS^G12D protein (Homo sapiens, UniProt P01116, G12D); experiment: Temperature-dependent Fluorescence (TdF) KRAS G12D protein binding assay; conditions: 6 μM KRAS^G12D protein, 10 μM compound, Sypro Orange; Kd calculated from the fluorescent shift
Description: The Temperature-dependent Fluorescence (TdF) assay was used to analyze binding affinity of compound to recombinant human KRAS^G12D protein. The TdF assay was conducted in the 96-well-based real-time fluorescence plate reader (ABI 7500 or Roche LightCycler 480). Fluorescent dye Sypro Orange (Sigma) was used to monitor the protein folding-unfolding transition. Protein-compound binding was gauged by the shift in the unfolding transition temperature (ΔTm) acquired with and without compound. Each reaction sample consists of 6 μM KRAS^G12D Protein, 10 μM compound, and Sypro Orange dye (in 1% DMSO) in 20 μL reaction buffer (25 mM HEPES pH 7.5, 150 mM NaCl, 10 mM MgCl2). […] Binding affinity (Kd value) was calculated based on the degree of fluorescent shift of the protein with and without compound.

Ba/F3_KRAS^G12D cells = Ba/F3_KRAS^G12D cells (Homo sapiens, UniProt P01116, G12D, cells depend on it); experiment: Ba/F3 KRAS G12D cell proliferation assay (CellTiter-Glo); assay type: cell-based; conditions: treated for 3 days, cell-titer Glo, cell growth inhibition, read-out: BaF3_KRAS^G12D IC50
Description: Ba/F3_KRAS^G12D cells (KYinno, China) were generated by transducing Ba/F3 parental cells with the recombinant KRAS^G12D lentivirus and followed by 1 ug/mL of puromycin selection and IL3 depletion. […] Cells were seeded at a density of 5×10^3 per well into 96-well plate and incubated overnight. Serial diluted compounds were added to each well. Cells were treated with the compounds for 3 days, after which cell-titer Glo reagent (Promega #G7572) was used to assess cell proliferation. The luminescence signal was then collected on Tecan Spark plate reader. […] Cell growth inhibition of IC50 is calculated with the equation of Y=Bottom+(Top−Bottom)/(1+10^((Log IC50−X)*Hill Slope))

Chain of Ba/F3_KRAS^G12D cells (P01116 whole entry G12D): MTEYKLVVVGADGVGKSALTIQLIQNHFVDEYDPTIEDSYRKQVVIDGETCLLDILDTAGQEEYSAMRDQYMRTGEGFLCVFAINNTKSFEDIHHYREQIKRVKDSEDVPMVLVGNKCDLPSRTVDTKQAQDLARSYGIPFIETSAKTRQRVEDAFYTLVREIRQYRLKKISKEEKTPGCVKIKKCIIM
Chain of recombinant human KRAS^G12D protein (P01116 1-188 isoform P01116-2 G12D): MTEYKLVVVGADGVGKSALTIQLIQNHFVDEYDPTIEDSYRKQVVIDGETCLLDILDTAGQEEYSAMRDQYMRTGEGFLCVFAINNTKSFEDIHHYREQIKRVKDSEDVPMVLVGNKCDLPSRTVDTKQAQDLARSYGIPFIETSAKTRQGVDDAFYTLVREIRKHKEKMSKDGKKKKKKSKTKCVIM

Oc1cc(-c2c(Cl)cc3c(N4CC5CCC(C4)N5)nc(OC[C@@]45CCCN4C[C@H](F)C5)nc3c2F)c2c(Cl)c(F)ccc2c1 (single isomer, unassigned) [Compound 138]
pKd [1]: > 6.30
GI50 (Ba/F3_KRAS^G12D cells): < 0.5 µM

Oc1cc(-c2c(Cl)cc3c(N4CC5CCC(C4)N5)nc(OC[C@@]45CCCN4C[C@H](F)C5)nc3c2F)c2c(Cl)c(F)ccc2c1 (single isomer, unassigned) [Compound 139]
pKd [1]: > 6.30
GI50 (Ba/F3_KRAS^G12D cells): < 0.5 µM

C#Cc1c(F)ccc2cc(O)cc(-c3c(Cl)cc4c(N5CC6CCC(C5)N6)nc(OC[C@@]56CCCN5C[C@H](F)C6)nc4c3F)c12 (single isomer, unassigned) [Compound 154]
pKd [1]: > 6.30
GI50 (Ba/F3_KRAS^G12D cells): < 0.5 µM

CN1CCC[C@H]1COc1nc(N2CCNCC2)c2cc(Cl)c(-c3cc(O)cc4ccccc34)c(F)c2n1 [Compound 1]
pKd [1]: < 5.30
GI50 (Ba/F3_KRAS^G12D cells): 0.5 to 5 µM

CN1CCC[C@H]1COc1nc(N2CC3CCC(C2)N3)c2cc(Cl)c(-c3cc(O)cc4ccccc34)c(F)c2n1 [Compound 2]
pKd [1]: > 6.30
GI50 (Ba/F3_KRAS^G12D cells): 0.5 to 5 µM

C[C@H]1CNCCN1c1nc(OC[C@@H]2CCCN2C)nc2c(F)c(-c3cc(O)cc4ccccc34)c(Cl)cc12 [Compound 3]
pKd [1]: < 5.30
GI50 (Ba/F3_KRAS^G12D cells): 0.5 to 5 µM

CN1CCC[C@H]1COc1nc(N2CC3CCC(C2)N3)c2cc(Cl)c(-c3c(O)cccc3F)c(F)c2n1 [Compound 4]
pKd [1]: 5.30 to 6.30
GI50 (Ba/F3_KRAS^G12D cells): > 5 µM

CN(C)CCCOc1nc(N2CC3CCC(C2)N3)c2cc(Cl)c(-c3cc(O)cc4ccccc34)c(F)c2n1 [Compound 5]
pKd [1]: 5.30 to 6.30
GI50 (Ba/F3_KRAS^G12D cells): 0.5 to 5 µM

CN(C)CCCOc1nc(N2CC3CCC(C2)N3)c2cc(Cl)c(-c3cccc4cccc(Cl)c34)c(F)c2n1 [Compound 6]
pKd [1]: < 5.30
GI50 (Ba/F3_KRAS^G12D cells): 0.5 to 5 µM

CN1CCC[C@H]1COc1nc(N2CC3CCC(C2)N3)c2cc(Cl)c(-c3cccc4cccc(Cl)c34)c(F)c2n1 [Compound 7]
pKd [1]: < 5.30
GI50 (Ba/F3_KRAS^G12D cells): 0.5 to 5 µM

CN(C)CCCOc1nc(N2CC3CCC(C2)N3)c2cc(Cl)c(-c3c(O)cccc3F)c(F)c2n1 [Compound 8]
pKd [1]: < 5.30
GI50 (Ba/F3_KRAS^G12D cells): > 5 µM

CN1CCC[C@H]1COc1nc(N2CC3CCCC(C2)N3)c2cc(Cl)c(-c3cc(O)cc4cccc(Cl)c34)c(F)c2n1 [Compound 11]
pKd [1]: 5.30 to 6.30
GI50 (Ba/F3_KRAS^G12D cells): 0.5 to 5 µM

CN1CCC[C@H]1COc1nc(N2CCNC(CC(N)=O)C2)c2cc(Cl)c(-c3cc(O)cc4ccccc34)c(F)c2n1 (some centres unmarked) [Compound 12]
pKd [1]: < 5.30
GI50 (Ba/F3_KRAS^G12D cells): > 5 µM

Nc1cccc(F)c1-c1c(Cl)cc2c(N3CCNCC3)nc(OCC34CCCN3CCC4)nc2c1F [Compound 14]
pKd [1]: < 5.30
GI50 (Ba/F3_KRAS^G12D cells): > 5 µM

CNC1CCN(c2nc(OC[C@@H]3CCCN3C)nc3c(F)c(-c4cc(O)cc5cccc(Cl)c45)c(Cl)cc23)C1 (some centres unmarked) [Compound 16]
pKd [1]: < 5.30
GI50 (Ba/F3_KRAS^G12D cells): 0.5 to 5 µM

CN1CCC[C@H]1COc1nc(N2CC3(CNC3)C2)c2cc(Cl)c(-c3cc(O)cc4cccc(Cl)c34)c(F)c2n1 [Compound 17]
pKd [1]: < 5.30
GI50 (Ba/F3_KRAS^G12D cells): > 5 µM

CN1CCC[C@H]1COc1nc(N2CCC3NCC32)c2cc(Cl)c(-c3cc(O)cc4cccc(Cl)c34)c(F)c2n1 (some centres unmarked) [Compound 18]
pKd [1]: < 5.30
GI50 (Ba/F3_KRAS^G12D cells): 0.5 to 5 µM

CN1CCC[C@H]1COc1nc(N2CC3(CCNC3)C2)c2cc(Cl)c(-c3cc(O)cc4cccc(Cl)c34)c(F)c2n1 [Compound 19]
pKd [1]: < 5.30
GI50 (Ba/F3_KRAS^G12D cells): > 5 µM

C[C@@H]1CN(c2nc(OC[C@@H]3CCCN3C)nc3c(F)c(-c4cc(O)cc5cccc(Cl)c45)c(Cl)cc23)[C@@H](C)CN1 [Compound 21]
pKd [1]: < 5.30
GI50 (Ba/F3_KRAS^G12D cells): 0.5 to 5 µM

C[C@H]1CNCCN1c1nc(OC[C@@H]2CCCN2C)nc2c(F)c(-c3cc(O)cc4cccc(Cl)c34)c(Cl)cc12 [Compound 22]
pKd [1]: < 5.30
GI50 (Ba/F3_KRAS^G12D cells): 0.5 to 5 µM

CN1CCC[C@H]1COc1nc(N2CCNCC23CC3)c2cc(Cl)c(-c3cc(O)cc4cccc(Cl)c34)c(F)c2n1 [Compound 23]
pKd [1]: 5.30 to 6.30
GI50 (Ba/F3_KRAS^G12D cells): 0.5 to 5 µM

CN1CCC[C@H]1COc1nc(N2C[C@H]3NCC[C@H]32)c2cc(Cl)c(-c3cc(O)cc4cccc(Cl)c34)c(F)c2n1 [Compound 25]
pKd [1]: < 5.30
GI50 (Ba/F3_KRAS^G12D cells): 0.5 to 5 µM

CN1CCC[C@H]1COc1nc(N2CC3CCC(C2)N3)c2cc(Cl)c(-c3nc(N)cc4ccccc34)c(F)c2n1 [Compound 27]
pKd [1]: < 5.30
GI50 (Ba/F3_KRAS^G12D cells): 0.5 to 5 µM

Fc1c(-c2cccc3cccc(Cl)c23)c(Cl)cc2c(N3CCNCC3)nc(OCC34CCCN3CCC4)nc12 [Compound 28]
pKd [1]: < 5.30
GI50 (Ba/F3_KRAS^G12D cells): < 0.5 µM

Oc1cc(-c2c(Cl)cc3c(N4CCNCC4)nc(OCC45CCCN4CCC5)nc3c2F)c2ccccc2c1 [Compound 29]
pKd [1]: < 5.30
GI50 (Ba/F3_KRAS^G12D cells): 0.5 to 5 µM

CN1CCC[C@H]1COc1nc(N2CC3CCC(C2)N3)c2cc(Cl)c(-c3c(N)cccc3F)c(F)c2n1 [Compound 31]
pKd [1]: < 5.30
GI50 (Ba/F3_KRAS^G12D cells): 0.5 to 5 µM

Nc1cccc(F)c1-c1c(Cl)cc2c(N3CC4CCC(C3)N4)nc(OCC34CCCN3CCC4)nc2c1F [Compound 32]
pKd [1]: 5.30 to 6.30
GI50 (Ba/F3_KRAS^G12D cells): > 5 µM

Oc1cc(-c2c(Cl)cc3c(N4C5CCC4CNC5)nc(OCC45CCCN4CCC5)nc3c2F)c2ccccc2c1 [Compound 33]
pKd [1]: > 6.30
GI50 (Ba/F3_KRAS^G12D cells): 0.5 to 5 µM

CN1CC(F)(F)CC1COc1nc(N2CC3CCC(C2)N3)c2cc(Cl)c(-c3cc(O)cc4cccc(Cl)c34)c(F)c2n1 (centres unmarked) [Compound 35]
pKd [1]: 5.30 to 6.30
GI50 (Ba/F3_KRAS^G12D cells): 0.5 to 5 µM

C[C@@H]1CN(c2nc(OCC3CN(C)C3)nc3c(F)c(-c4cc(O)cc5ccccc45)c(Cl)cc23)[C@@H](C)CN1 [Compound 36]
pKd [1]: < 5.30
GI50 (Ba/F3_KRAS^G12D cells): 0.5 to 5 µM

CN(C)C1CN(c2nc(N3CC4CCC(C3)N4)c3cc(Cl)c(-c4cc(O)cc5ccccc45)c(F)c3n2)C1 [Compound 39]
pKd [1]: < 5.30
GI50 (Ba/F3_KRAS^G12D cells): 0.5 to 5 µM

CN1CC2CN(c3nc(N4CC5CCC(C4)N5)c4cc(Cl)c(-c5cc(O)cc6ccccc56)c(F)c4n3)CC2C1 (centres unmarked) [Compound 40]
pKd [1]: < 5.30
GI50 (Ba/F3_KRAS^G12D cells): 0.5 to 5 µM

CN1CCC2(CC1)CCN(c1nc(N3CC4CCC(C3)N4)c3cc(Cl)c(-c4cc(O)cc5ccccc45)c(F)c3n1)C2 [Compound 41]
pKd [1]: < 5.30
GI50 (Ba/F3_KRAS^G12D cells): 0.5 to 5 µM

CN1CCC2CCN(c3nc(N4CC5CCC(C4)N5)c4cc(Cl)c(-c5cc(O)cc6ccccc56)c(F)c4n3)CC21 (centres unmarked) [Compound 42]
pKd [1]: < 5.30
GI50 (Ba/F3_KRAS^G12D cells): 0.5 to 5 µM

CN1CCC2CN(c3nc(N4CC5CCC(C4)N5)c4cc(Cl)c(-c5cc(O)cc6ccccc56)c(F)c4n3)CC2C1 (centres unmarked) [Compound 43]
pKd [1]: < 5.30
GI50 (Ba/F3_KRAS^G12D cells): 0.5 to 5 µM

CN1CCC2(CCN(c3nc(N4CC5CCC(C4)N5)c4cc(Cl)c(-c5cc(O)cc6ccccc56)c(F)c4n3)C2)C1 (centres unmarked) [Compound 44]
pKd [1]: < 5.30
GI50 (Ba/F3_KRAS^G12D cells): 0.5 to 5 µM

CN1CC2(CCN(c3nc(N4CC5CCC(C4)N5)c4cc(Cl)c(-c5cc(O)cc6ccccc56)c(F)c4n3)CC2)C1 [Compound 45]
pKd [1]: < 5.30
GI50 (Ba/F3_KRAS^G12D cells): 0.5 to 5 µM

Oc1cc(-c2c(Cl)cc3c(N4CC5CCC(C4)N5)nc(OCCN4CCC(O)C4)nc3c2F)c2ccccc2c1 (centres unmarked) [Compound 46]
pKd [1]: 5.30 to 6.30
GI50 (Ba/F3_KRAS^G12D cells): > 5 µM

Cc1cccc2cc(O)cc(-c3c(Cl)cc4c(N5CC6CCC(C5)N6)nc(OC[C@@]56CCCN5C[C@H](F)C6)nc4c3F)c12 [Compound 47]
pKd [1]: > 6.30
GI50 (Ba/F3_KRAS^G12D cells): < 0.5 µM

CC(C)N1CC(Nc2nc(N3C[C@@H](C)NC[C@@H]3C)c3cc(Cl)c(-c4cc(O)cc5ccccc45)c(F)c3n2)C1 [Compound 49]
pKd [1]: < 5.30
GI50 (Ba/F3_KRAS^G12D cells): > 5 µM
